This is an account of results in patent publication US20220031710A1, “USE OF ERK5 INHIBITORS FOR TREATING GLIOMAS IN PEDIATRIC SUBJECTS” (UNIVERSITY OF PITTSBURGH - OF THE COMMONWEALTH SYSTEM OF …, priority 2019, published 2022).

In experiment [1] the test system is SF8628 intracranial xenografts. Kind of experiment: SF8628 orthotopic xenograft model. It is filed as in vivo, mice. The protocol: (§1) Paraffin embedded blocks were cut in 5 μm sections. Slides were processed as follows: de-waxed in xylene followed by rehydration in a standard alcohol series. Antigen retrieval was by pressure cooking for 20 minutes in citrate buffer (pH 6.0), followed by blocking of endogenous peroxidase in 3% H2O2. The antibodies were added and incubated overnight at 4° C. Antibodies were detected using a secondary-HRP labeled mouse or rabbit antibody detection system (Dako EnVision+ System-HRP cat #k4401, cat #k4403) followed by addition 3,3′-Diaminobenzidine (DAB) chromagen (Vector Labs) for visualization. Sections were counter-stained with hematoxylin (Fisher Scientific Inc., Canada) and slides dehydrated in 70, 80, and 100% ethanol and xylene. Slides were cover slipped and mounted in Permount (Fisher Scientific Inc.). Antibodies and concentrations for IHC are as follows: Ki67 (1:100, Dako, cat #F7268). All images were captured on a Leica DM 100 microscope using Leica Application Suite Software (Switzerland, Version 3.8.0).
(§2) All animal procedures were carried out ethically according to animal user protocols approved by Institutional Animal Care Committee (IACUC). 4-6 week-old non-obese diabetic severe combined immune deficiency male or female mice (NOD-SCID-Prkdc^scid) were injected with 1×10^5 SU-DIPG-13p cells or 1×10^5 SF8628 DIPG cells. […]

The subject of a further experiment is DIPG-IV cells. Kind of experiment: EC50 of ERK5-IN-1 in DIPG-IV cells expressing ERK5-HA, ERK5-HA T733E or MYC S62D. The class given is cell-based, human. The protocol:
Wildtype human H3F3A cDNA was ligated with a puromycin selection marker and a self-cleaving T2A sequence using Gibson Assembly Cloning and cloned into pLV with an EF1a promoter. HA-RASAL1 (NM_001193520.1) with an N-terminal HA tag, MYC (NM_002467.4), or MAPK7 (ERK5, NM_139033) were ligated with T2A mCherry and cloned into pLV under the control of the EF1a promoter. Cloning and plasmid sequence validation were performed by VectorBuilder Services (Santa Clara, Calif. 95050). Site-directed mutagenesis was performed to generate H3F3A K27M, H3F3A G34R, MYC S62D, and ERK5 mutant constructs using the QuikChange II Site-Directed Mutagenesis Kit and manufacturer's protocol (Agilent, Cat #200523, Santa Clara, Calif. 95051). Lentiviral ERK5 GIPZ shRNA plasmids were purchased from Dharmacon (Lafayette, Colo. 80026, Cat #RHS4531-EG5598 glycerol set: V2LHS 202701, V3LHS_366737, V3LHS_366738, V3LHS_366740, V3LHS_640828, V3LHS_640830).
Direct cell counts were performed using the Countess II FL Automated Cell Counter (ThermoFisher Scientific). Alamar blue viability (ThermoFisher Scientific) and the 5-bromo-2′-deoxyuridine (BrdU) incorporated cell proliferation assay (Cell Signaling Technology Cat #6813) were performed using the manufacturer's standard protocol. EC50 curve analysis was performed using raw fluorescent Alamar blue values that were inputted into PRISM 7.0. […]

A further experiment has as its system DIPG-13p cells xenograft. As to the kind of experiment: DIPG-13p orthotopic xenograft model. The class given is in vivo, mice. The settings on record: 50 mg/kg, 2 cycles of 5 days on 2 days off; DIPG-13p xenograft. The procedure: as §1, §2
Another experiment has as its system MYCN. Kind of experiment: MYCN qRT-PCR and western blot in DIPG-13p cells. It is filed as cell-based, human. The protocol: Cell pellets were lysed in PLC lysis buffer containing protease and phosphatase inhibitors (Roche Inc.). Protein lysates were quantified using the bicinchoninic acid (BCA) assay (Pierce Chemical Co., Rockford, Ill.). 30 μg of total protein lysate was loaded in 10% SDS-PAGE gels and electrophoresed. Proteins were transferred to PVDF membranes using a semi-dry transfer apparatus (Bio-Rad). Membranes were blocked for one hour and probed for various proteins overnight in 5% non-fat milk or 5% BSA in Tris Buffered Saline Solution, 0.5% Tween-20 (TBST) or Phosphate Buffered Saline Solution with 0.5% Tween-20 (PBST). […] Binding was detected using Chemiluminescence Reagent Plus (PerkinElmer Inc., MA, USA). […]
Total RNA isolation was performed using an RNA extraction kit according to the manufacturer's instructions (RNeasy kit, Qiagen). cDNA was synthesized from 100 ng of total RNA using the Quantitect RT kit which included DNAse treatment (Qiagen). Quantitative real-time PCR was performed on 10 ng of cDNA template in a final volume of 20 μl using the Chromo4 Real Time PCR detector (MJ Research, a Division of Bio-Rad Laboratories Ltd) using SYBR green fluorescence. RT-PCR data was analyzed using Opticon Monitor 3.1.3 analysis software. […]
In general terms: Quantitative PCR measures a nucleic acid by following its amplification.

Experiment [2] relates to DIPG-007, DIPG-IV, SF8628 and DIPG-13p cells. Kind of experiment: Direct Trypan-Blue automated cell count of DIPG cells. The class given is cell-based, human. The protocol: Direct cell counts were performed using the Countess II FL Automated Cell Counter (ThermoFisher Scientific). Alamar blue viability (ThermoFisher Scientific) and the 5-bromo-2′-deoxyuridine (BrdU) incorporated cell proliferation assay (Cell Signaling Technology Cat #6813) were performed using the manufacturer's standard protocol. EC50 curve analysis was performed using raw fluorescent Alamar blue values that were inputted into PRISM 7.0. Drug concentrations were log 10 transformed and values normalized to percent viability with respect to vehicle treated cells. EC50 values were interpolated from a log inhibitor vs. normalized response with variable slope using a least square fit model.

The test system is the same in experiment [3]. Kind of experiment: Annexin-PI flow cytometry apoptosis assay. The class given is cell-based, human. The following applies: for populations in early apoptosis, late apoptosis and necrosis / viable cells (Annexin negative, PI negative): 48 h, vs DMSO vehicle. The protocol: Apoptosis was quantified using the Pacific Blue Annexin V Apoptosis Detection Kit with propidium iodide (BioLegend, San Diego, Calif. Cat #640926). Analysis was performed at the Flow Cytometry Core, Rangos Research Center, UPMC Children's Hospital of Pittsburgh.
In general terms: In flow cytometry, cells or beads pass a laser one at a time.

SMILES strings stand for the structures.

For the molecule `CCOc1cc(C(=O)N2CCC(N3CCN(C)CC3)CC2)ccc1Nc1ncc2c(n1)N(C1CCCC1)c1ccccc1C(=O)N2C` [ERK5-IN-1, 11-cyclopentyl-2-[[2-ethoxy-4-[[4-(4-methyl-1-piperazinyl)-1-piperidinyl]carbonyl]phenyl]amino]-5,11-dihydro-5-methyl-6H-pyrimido[4,5b][1,4]benzodiazepin-6-one], the median survival is listed as 40 days in experiment [1] (50 mg/kg for 2 weeks (2 cycles of 5 days on 2 days off), SF8628 intracranial xenografts) and 30 days in the experiment with DIPG-13p cells xenograft. In addition, the KI-67 staining entry in experiment [1] (50 mg/kg, SF8628 xenograft tumors, vs vehicle) is “reduced”. The “resistance to ERK5-IN-1 (EC50 values)” value with DIPG-IV cells (DIPG-IV cells expressing MYC S62D vs empty vector control) is “promoted resistance”. Further, the EC50 values result in the experiment with DIPG-IV cells (DIPG-IV cells expressing wild-type HA-tagged ERK5 or constitutively active ERK5 T733E vs empty vector) is “increased EC50 values”. Moreover, the “MYCN protein and transcript levels” value in the experiment on MYCN is “down-regulation”. The cell number result in experiment [2] (500 nM, 9 days of treatment, DIPG-007, DIPG-IV, SF8628 cells, vs vehicle) is on record as “significant decreases in cell number”. The cell growth result in experiment [2] (DIPG-13p and SF8628 cells) is listed as “diminished cell growth”. Further, the “populations in early apoptosis, late apoptosis and necrosis” value in experiment [3] (DIPG-007 and DIPG-IV cells) is “increased”; in experiment [3] (SF8628 and DIPG-13p cells), “increased”. Besides, the “viable cells (Annexin negative, PI negative)” value in experiment [3] (DIPG-007 and DIPG-IV cells) is recorded as “decreased”; in experiment [3] (SF8628 and DIPG-13p cells), “decreased”. For the same molecule, in experiment [3] (DIPG-007 and DIPG-IV cells, compared to controls), the rates of apoptosis entry is reported as “significantly higher rates of apoptosis”. Moreover, the apoptosis entry in experiment [3] (DIPG-13p and SF8628 cells) is listed as “induction of apoptosis”.
